Reference: patent US7514406B2, “Methods for inhibiting deacetylase activity” (Fred Hutchinson Cancer Research Center, priority 2001, dated 2009)

What was measured:
[1] = test system: mutant SIR2 (GAL-SIR2-Y298N or GAL-SIR2-H286Q); assay: HDA assay with drug resistant mutant Sir2p; assay type: biochemical, S. cerevisiae; details: in vitro, equivalent amounts of protein
Protocol: Briefly, histone H4 was chemically acetylated using the HDAC Assay Kit (Upstate Biotechnology). […] For the histone deacetylase assays, 50 μg of yeast whole-cell protein extract was incubated with [^3H] acetylated histone H4-peptide (40,000 cpm) with or without 500 μM NAD^+ in a 100 μl reaction. The buffer contained 150 mM NaCl, 25 mM sodium phosphate pH 7.4 and 1 mM DTT. Reactions were incubated at 30° C. for 16 hours and were stopped by the addition of 25 μl of 1 N HCl and 0.15 N acetic acid. Released [^3H] acetate was extracted with 400 μl of ethyl acetate.
To obtain further insight into the molecular mechanism by which S I inhibited deacetylase activity of Sir2p, mutant forms of Sir2p were generated that were resistant to the compound. […] Plasmid DNA was recovered from the individual colonies and was retransformed into the test strain to assure that drug resistance was conferred by SIR2-containing plasmid.

[2] = test system: silenced telomeric URA3 gene; assay: URA3 telomeric silencing assay (cell-based screen for Sir2p inhibitors); set-up: species or system S. cerevisiae
Protocol: In order to find inhibitors of the deacetylase activity of Sir2p, screening was carried out to identify compounds that perturbed silencing at each of the loci at which Sir2p is known to act in S. cerevisiae: telomeres, HML, HMR, and the rDNA. The cell-based positive selection screen was designed so that inhibition of Sir2p activity permitted normal cell growth in order to avoid identifying cytotoxic compounds. Briefly, a yeast strain containing a marker gene, such as a nutritional marker, in close proximity to a telomeres in S. cerevisiae such that it is repressed by telomeric chromatin, is exposed to a test compound or set of test compounds dissolved in DMSO and cultured under suitable conditions and in media supplemented to permit growth only under conditions in which the marker gene is expressed. After a suitable interval, the optical density of the culture is measured. An increase in optical density corresponds to growth indicating a perturbation of silencing of the marker gene. All strains in this and other examples herein can be grown in synthetic complete media (SC) or selective synthetic drop-out media containing 2% glucose.
Initial screening for compounds that effect silencing was carried out using a URA3 assay. […] Eleven compounds identified in this primary screen were analyzed further to determine whether silencing at the HML and HMR loci was also affected.

mammalian cells = assay: Toxicity assays using S1 and a variety of DNA damaging agents; assay type: cell-based
Source text: (1996) Science 272, 408-11)). In addition to histones, many other proteins are regulated by acetylation, including pRb, E2F and p53 proteins (Chan, H. M., et al. (2001) Nat. Cell Biol. 3,667-74; Martinez-Balbas, M. A., et al. (2000) EMBO J. 19,662-71; and Luo, J., et al. (2000) Nature 408, 377-81). Two recent reports (Vaziri, H., et al. (2001) Cell 107, 149-159 and Luo, J., et al. (2001) Cell 107, 137-148) implicate deacetylation of p53, by Sir2, in down-regulation of transcriptional and proapoptotic activities of p53 in response to DNA damage. […] P. (2001) Oncogene 20, 2988-90 and Tycko, […]. Clin. Invest 105, 245-6).

HMLα locus in MATa cells = assay: Pheromone response assay, silencing at the HMLα locus in MATa cells; assay type: cell-based, S. cerevisiae
Source text: When haploid MATa cells are exposed to the mating pheromone […], they arrest in G1 phase of the cell cycle. Loss of silencing at the HMLα locus in MATa cells results in expression of a mating type genes (Marsh, L., et al. (1991) Annu. Rev. Cell Biol. 7, 699-728). The coexpression of α and a genes creates a pseudo-diploid state: cells are immune to […] and unable to mate.

[3] = test system: silent HML locus in G1-arrested MATa cells; assay: Maintenance of silent state in G1-arrested MATa cells; assay type: cell-based, S. cerevisiae
Source text: This was presumably due to loss of mating competence, a consequence of expression of the α2 gene from the “silent” HML locus. To test this idea more directly, a MATa strain with a single G1 cyclin gene (CLN3), which is under control of a galactose-inducible promoter (Cross, F. R. (1990) Mol. Cell Biol. 10, 6482-90), was arrested in G1 by replacing galactose with glucose in the media.

[4] = test system: primary human fibroblasts (HFF); assay: Sensitization to etoposide, 3H-thymidine incorporation viability; assay type: cell-based; details: S1 25, 50 and 100 μM with etoposide, 72 hours
Protocol: (§1) To test whether S1 could sensitize cells to DNA damage, mammalian cells were exposed to etoposide, a DNA damaging agent, in the presence and absence of S1. […] Viability of cells was assessed with 3H-thymidine incorporation.

[5] = test system: TRP1 gene integrated at the silent HMR locus; assay: TRP1 reporter at silent HMR locus growth assay; assay type: cell-based, S. cerevisiae; details: tryptophan-deficient media, 36-48 h
Protocol: A secondary screening of the eleven identified compounds was carried out using a TRP1 gene which utilized a yeast strain with a TRP1 gene integrated at the silent HMR locus cannot grow in media lacking tryptophan (Buck, S. W. & Shore, D. (1995) Genes Dev. 9, 370-84). Using the method essentially described above, wells in a 96-well plate were inoculated with 150 μL of yeast culture (a yeast strain with a TRP1 gene integrated at the silent HMR locus), containing 1×10^5 cell/ml in tryptophan-deficient media. The eleven compounds dissolved in DMSO were added to the cells and the cultures are incubated for 36-48 h and growth in individual wells is tested by optical density (OD660) measurements and visual inspection.

[6] = test system: wild type BY4741 cells vs sir2, hst1, hst2, hst3, hst4 deletion mutants; assay: Whole genome DNA microarray transcriptional profiling; assay type: cell-based, S. cerevisiae
Source text: In addition to SIR2, the S. cerevisiae genome encodes four SIR2 homologues: HST1-4 (Homologue of Sir Two) (Brachmann, C. B., et al. (1995) Genes Dev. 9, 2888-902). Hst2p is located in the cytoplasm and is responsible for virtually all the NAD^+-dependent deacetylase activity detected in a cellular lysate (Smith, J. S., et al., (2000) Proc. Natl. Acad. Sci. USA 97, 6658-63). Its relevant biological substrate is unknown. Hst1p is required for transcriptional repression of meiotic genes (Xie, J., et al. (1999) EMBO J. 18, 6448-54), whereas little is known about the cellular function of Hst3p or Hst4p.
Strains for the DNA array experiments for the whole genome analysis were obtained from Research Genetics (wild type BY4741: MATa his3, leu2, met15, […] or isogenic sir2, hst1, hst2, hst3 and hst4 deletion mutants). Several colonies from fresh cultures were inoculated into synthetic complete medium with 2% glucose, grown overnight at 30° C., diluted to 0.5−1×10^6 cell/ml and grown for an additional 6-9 hours until reaching a density of 0.5−1×10^7 cells/ml. […] Total RNA was extracted using the hot acid phenol method. Microarray construction and hybridization protocols were modified from those described elsewhere (DeRisi, J. L. et al. (1997) Science 278, 680-6). Briefly, yeast microarrays were constructed employing a set of ˜6200 or specific PCR primer pairs (Research Genetics, Huntsville, Ala.), which were used to amplify each open reading frame (orf) of the yeast genome. Individual PCR products were verified as unique via gel electrophoresis and purified using ARRAYIT 96-well PCR purification kits (TeleChem International, Sunnyvale, Calif.). Purified PCR products were mechanically “spotted” in 3×SSC (450 mM sodium chloride and 45 mM sodium citrate, pH 7.0) onto poly-lysine coated microscope slides using an OMNIGRID high-precision robotic gridder (GeneMachines, San Carlo, Calif.). […]

Rat1a cells = assay: Sensitization to etoposide, 3H-thymidine incorporation viability; assay type: cell-based, rat; details: S1 25, 50 and 100 μM with etoposide, 72 hours
Protocol: as §1

rDNA locus = assay: Recombination at the rDNA locus (loss of ADE2 integrated into the rDNA array); assay type: cell-based, S. cerevisiae
Protocol: Silencing within the rDNA locus is manifested in two ways. It can weakly repress expression of an inserted reporter gene (Smith, J. S. & Boeke, J. D. (1997) Genes Dev. 11, 241-54), and it reduces recombination between tandem copies of the ribosomal RNA genes (Gottlieb, S. & Esposito, R. E. (1989) Cell 56, 771-6). Recombination was analyzed by measuring the loss rate of an ADE2 gene integrated into the rDNA array essentially as described by Kaeberlein, M., et al. (1999 Genes Dev. 13, 2570-80). […] After six hours, the cultures were plated onto rich medium and the loss of expression of the ADE2 gene was measured and scored by the development of sectored red colonies. […] Treatment with SI increased recombination rate at the rDNA locus seven-fold, which is similar to rates observed in a sir2 mutant (FIG. 1D).

[7] = 50 μg/ml cycloheximide 40 minutes prior to S1

O=C1CCc2c(ccc3ccccc23)O1 [S1, 1,2-dihydro-3H-naphtho[2,1-b]pyran-3-one]
inhibitory effect on histone deacetylase activity of mutant proteins vs wild type Sir2p [1]: increased resistance
disruption of silencing in drug resistant SIR2 mutants vs wild type strains ([2]; SIR2-H286Q, SIR2-L287Q, SIR2-Y298N): required higher concentrations
silencing at telomeric loci ([2]; URA3 telomeric marker, uracil-deficient media, 0.5, 5 and 50 μM, 36-48 h): disrupted silencing
sensitization to DNA damaging agents (mammalian cells): sensitizes mammalian cells
silencing at HML (HMLα locus in MATa cells): disrupted silencing at HML
mating of MATa cells (HMLα locus in MATa cells; in the presence of S1): defective for mating
responsiveness of MATa cells to α factor (HMLα locus in MATa cells; in the presence of S1): lost responsiveness to α factor
α2 mRNA expression from HML in G1-arrested cells ([3]; CLN3 galactose-inducible strain arrested by glucose, DMSO control): detected only in the S1-treated cells
cell cycle progression of α factor G1-arrested MATa cells ([3]; untreated cells remained arrested in G1): progressed through the cell cycle
sensitization to etoposide [4]: dose-dependent sensitization
growth in media lacking tryptophan (loss of silencing at HMR) [5]: enabled cells to grow in media lacking tryptophan
overlap with HST2, HST3 or HST4 regulated genes [6]: no overlap
transcriptional down-regulation by S1 in the absence of new protein synthesis [6, 7]: virtually all transcriptional down-regulation was abolished
upregulation of genes by S1 with cycloheximide [6, 7]: did not affect
sensitization to etoposide (Rat1a cells): dose-dependent sensitization
silencing of a reporter gene within the rDNA locus (rDNA locus): disrupted silencing
increase of recombination rate at the rDNA locus (rDNA locus; 15 μM, six hours, similar to rates in a sir2 mutant): seven-fold
effect on rDNA recombination in sir2 cells (rDNA locus; sir2 cells treated with the compound): no effect
